Laboratory results: article PMC3438169 (PLoS ONE, 2012)
*1 amine or outer side, *2 acyl side, *3 side chain or, on linkers, in order; H or OH if unused. Where a SMILES comes first, the peptide text is derived from it. [ ]: non-standard residue; d: D form. dAla(ψthiazole) = C[C@@H](N[*:1])c1nc(C(=O)[*:2])cs1; Trp(4-OMe) = COc1cccc2[nH]cc(C[C@H](N)C(=O)O)c12; dAbu = CC[C@@H](N)C(=O)O; Dha = C=C(N)C(=O)O; Sar = CNCC(=O)O

Key:
[1] = system: BYΔ8 strain with MEF1 mutations; assay: Yeast susceptibility determination, MEF1 mutants in BYΔ8 background; type: cell-based, S. cerevisiae; settings: Figure 2D: all argyrin B concentrations in the range tested
Description: Yeast strains used in this study are BY4741 [32] and strain BYΔ8, derived from BY4741 but deleted for eight genes involved in drug resistance (efflux pumps: snq2, pdr5, yor1; transcription factors: pdr1, pdr2, pdr3, yap1, yrm1). […] Starting OD600 was 0.1, total volume per well 120 µl. Plates were incubated at 30°C with 770 RPM orbital shaking.
Strain BYΔ8 was incubated in 2.5% ethylmethanesulfonate until only 50% of the cells formed colonies. […] Amplifying the mutated MEF1 gene and transforming it into non-mutagenized BYΔ8 cells validated identified mutations in MEF1.

EF-G1 S459F = target: T1, EF-G1 S459F (Pseudomonas aeruginosa, UniProt Q9HWD2, S459F); assay: Surface plasmon resonance (SPR), EF-G1 S459F; type: binding, P. aeruginosa; settings: Biacore, data not shown
T1 construct: P. aeroginosa fusA1 encoding full-length EF-G was PCR amplified from pET28a-PaEFG-Nhis; made in house; host or cells: E. coli BL21 (DE3)
Text: For wild type P. aeruginosa EF-G1 expression, the fusA gene was amplified from genomic DNA of P. aeruginosa PAO1 K767 using the primer pair EFG-F/EFG-R: […]/[…]. The product was digested with NdeI and HindIII and ligated into similarly digested pET28a to generate pET28a-PaEFG-Nhis. This plasmid was then used for site directed mutagenesis to introduce the nucleotide change encoding EF-G1S459F (pET28a-PaEFGS459F-Nhis). The plasmids were then transformed into an E. coli strain BL21 (DE3) for expression. A single colony was used to inoculate 10 ml LB broth containing 50 µg/ml kanamycin which was incubated at 37°C overnight, with shaking at 250 rpm. The overnight culture was then diluted 100-fold into 1 liter fresh LB broth containing 50 µg/ml kanamycin. After growing at 37°C with vigorous shaking for about 2.5 hours, expression of P. aeruginosa EF-G1 or EF-G1S459F was then induced by adding 0.1 mM IPTG, with further culture incubation at 18°C for 24 hours. Cells were then pelleted by centrifugation at 5,000 rpm with Sorvall SLC-6000 rotor and stored at −20°C. Cell pellets were then resuspended in 20 ml of BugBuster solution (Novagen) and incubated at room temperature for 20 minutes. […] The protein in the fractions was monitored by UV absorbance at 280 nm. […] Protein concentration was determined by Nano-drop spectrophotometer. […]

T1 sequence (Q9HWD2 whole entry S459F): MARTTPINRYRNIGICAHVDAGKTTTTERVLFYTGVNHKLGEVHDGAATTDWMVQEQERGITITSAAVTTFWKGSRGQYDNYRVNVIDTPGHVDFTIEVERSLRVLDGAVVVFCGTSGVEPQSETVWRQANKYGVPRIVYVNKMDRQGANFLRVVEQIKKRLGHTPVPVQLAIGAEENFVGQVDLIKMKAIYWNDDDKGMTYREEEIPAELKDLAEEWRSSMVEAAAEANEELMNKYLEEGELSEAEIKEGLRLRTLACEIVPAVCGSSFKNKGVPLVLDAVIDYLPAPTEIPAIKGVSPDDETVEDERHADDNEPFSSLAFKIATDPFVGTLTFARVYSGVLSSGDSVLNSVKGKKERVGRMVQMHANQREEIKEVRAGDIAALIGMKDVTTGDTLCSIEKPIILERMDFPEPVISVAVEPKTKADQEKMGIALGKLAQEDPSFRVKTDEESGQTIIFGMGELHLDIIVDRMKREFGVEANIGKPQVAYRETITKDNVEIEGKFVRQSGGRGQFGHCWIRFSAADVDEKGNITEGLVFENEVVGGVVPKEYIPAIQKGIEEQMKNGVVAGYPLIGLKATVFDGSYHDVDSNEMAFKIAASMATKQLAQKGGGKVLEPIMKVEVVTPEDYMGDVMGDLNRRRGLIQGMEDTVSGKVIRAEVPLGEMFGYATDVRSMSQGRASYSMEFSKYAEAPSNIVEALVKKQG

C=C1NC(=O)CN(C)C(=O)CNC(=O)[C@H](Cc2c[nH]c3cccc(OC)c23)NC(=O)[C@H](Cc2c[nH]c3ccccc23)NC(=O)c2csc(n2)[C@@H](C)NC(=O)[C@@H](CC)NC1=O [argyrin B] (cyclo([dAbu][dAla(ψthiazole)]W[Trp(4-OMe)]G[Sar][Dha]))
Inhibition of the wild-type (MEF1wt) strain (in words) [1]: full inhibiton of the wild-type strain
Binding by SPR (in words) (EF-G1 S459F): failed to bind argyrin B sufficiently to generate a Kd value
